Test results from BindingDB's records for doi:10.1016/j.bmcl.2004.03.046 (Seoul National University, 2004).

Target: Tyrosinase (Agaricus bisporus)
Experiment: Inhibitory activity against mushroom tyrosinase

SMILES	IC50
O=C(N[C@@H](Cc1ccccc1)C(=O)N[C@@H](Cc1c[nH]c2ccccc12)C(=O)N[C@@H](Cc1c[nH]c2ccccc12)C(=O)O)OCc1cc(=O)c(O)co1 [2-[(S)-2-[(S)-2-(5-Hydroxy-4-oxo-4H-pyran-2-ylmethoxycarbonylamino)-3-phenyl-propionylamino]-3-(1H-indol-3-yl)-propionylamino]-3-(1H-indol-3-yl)-propionic acid]	6170 nM
O=C(N[C@@H](Cc1ccccc1)C(=O)N[C@@H](Cc1ccccc1)C(=O)N[C@@H](Cc1ccc(O)cc1)C(=O)O)OCc1cc(=O)c(O)co1 [(S)-2-{(S)-2-[(S)-2-(5-Hydroxy-4-oxo-4H-pyran-2-ylmethoxycarbonylamino)-1-oxo-3-phenyl-propylamino]-3-phenyl-propionylamino}-3-(4-hydroxy-phenyl)-propionic acid]	330 nM
O=C(O)C[C@H](NC(=O)[C@H](Cc1c[nH]c2ccccc12)NC(=O)[C@H](Cc1ccccc1)NC(=O)OCc1cc(=O)c(O)co1)C(=O)O [2-[(S)-2-[(S)-2-(5-Hydroxy-4-oxo-4H-pyran-2-ylmethoxycarbonylamino)-3-phenyl-propionylamino]-3-(1H-indol-3-yl)-propionylamino]-succinic acid]	2130 nM
CC[C@H](C)[C@H](NC(=O)[C@H](Cc1c[nH]c2ccccc12)NC(=O)[C@H](Cc1ccccc1)NC(=O)OCc1cc(=O)c(O)co1)C(=O)O [2-[(S)-2-[(S)-2-(5-Hydroxy-4-oxo-4H-pyran-2-ylmethoxycarbonylamino)-3-phenyl-propionylamino]-3-(1H-indol-3-yl)-propionylamino]-3-(S)-methyl-pentanoic acid]	2180 nM
O=C(N[C@@H](Cc1ccccc1)C(=O)N[C@@H](Cc1ccc(O)cc1)C(=O)N[C@@H](Cc1ccc(O)cc1)C(=O)O)OCc1cc(=O)c(O)co1 [(S)-2-[(S)-2-[(S)-2-(5-Hydroxy-4-oxo-4H-pyran-2-ylmethoxycarbonylamino)-1-oxo-3-phenyl-propylamino]-3-(4-hydroxy-phenyl)-propionylamino]-3-(4-hydroxy-phenyl)-propionic acid]	390 nM
O=C(N[C@@H](Cc1ccccc1)C(=O)N[C@@H](Cc1c[nH]c2ccccc12)C(=O)N[C@@H](Cc1ccccc1)C(=O)O)OCc1cc(=O)c(O)co1 [2-[(S)-2-[(S)-2-(5-Hydroxy-4-oxo-4H-pyran-2-ylmethoxycarbonylamino)-3-phenyl-propionylamino]-3-(1H-indol-3-yl)-propionylamino]-3-phenyl-propionic acid]	4480 nM
